Experimental data reported in PubChem BioAssay (NCI).
“And” between values parts separate entries of the source, which are not always exact repeats. Identical values can stand only once.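 Tested at 5 concentrations; 48 h exposure; 96-well plates; endpoints linearly interpolated, else capped at highest concentration. At the GI50, growth is halved. TGI marks complete inhibition of growth.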

Legend:
Experiment in all cases: inhibition of tumour cell growth, NCI panel, 48 h
HL-60(TB) leukemia = test system: HL-60(TB) leukemia
SK-OV-3 ovarian = test system: SK-OV-3 ovarian
A498 renal = test system: A498 renal
SNB-75 CNS = test system: SNB-75 CNS
SK-MEL-28 melanoma = test system: SK-MEL-28 melanoma
EKVX NSCLC = test system: EKVX NSCLC
M14 melanoma = test system: M14 melanoma
MDA-MB-435 = test system: MDA-MB-435
PC-3 prostate = test system: PC-3 prostate
DU-145 prostate = test system: DU-145 prostate

Structure (SMILES) | TGI (HL-60(TB) leukemia) | TGI (SK-OV-3 ovarian) | TGI (A498 renal) | TGI (SNB-75 CNS) | TGI (SK-MEL-28 melanoma) | TGI (EKVX NSCLC) | TGI (M14 melanoma) | GI50 (HL-60(TB) leukemia) | GI50 (SK-OV-3 ovarian) | GI50 (SNB-75 CNS) | GI50 (SK-MEL-28 melanoma) | GI50 (EKVX NSCLC) | GI50 (M14 melanoma) | TGI (MDA-MB-435) | TGI (PC-3 prostate) | TGI (DU-145 prostate) | GI50 (A498 renal) | GI50 (MDA-MB-435) | GI50 (PC-3 prostate) | GI50 (DU-145 prostate)
NC(=S)N1N=C2CCCCCC[C@@H]2[C@H]1c1ccccc1 | 51.7 µM | > 100 µM | > 100 µM | > 100 µM | > 100 µM | > 100 µM | > 100 µM |  |  |  |  |  |  |  |  |  |  |  |  | 
O=C1CCCCCCC2=C1C(Sc1ccccc1)CC2 (stereo not given) | 36.2 µM | > 100 µM |  | 90.7 µM | 94.8 µM | 85.2 µM | > 100 µM |  |  |  |  |  |  |  |  |  |  |  |  | 
CCC[CH2][Sn](=[O])[CH2]CCC | > 50 µM | > 50 µM |  | > 50 µM | > 50 µM | > 50 µM | > 50 µM | > 36.2 µM | > 50 µM | > 39.7 µM | > 50 µM | > 50 µM | > 50 µM |  |  |  |  |  |  | 
CC(C)(C)C1=CC(=N/N=c2\scc(-c3ccccc3)n2-c2ccccc2)C=C(C(C)(C)C)C1=O | > 100 µM | > 100 µM | > 100 µM | > 100 µM | > 100 µM | > 100 µM | > 100 µM |  |  |  |  |  |  |  |  |  |  |  |  | 
CC(=O)OCc1c(O)c2c([nH]c1=O)CCc1ccccc1-2 | 210 µM | > 350 µM |  |  | 130 µM | > 350 µM |  |  |  |  |  |  |  |  |  |  |  |  |  | 
O=C(O)/C=C/c1ccc(Oc2ccccc2C(=O)O)o1 | > 10 µM | > 10 µM |  | > 10 µM | > 10 µM |  | > 10 µM |  |  |  |  |  |  | > 10 µM | > 10 µM | > 10 µM |  |  |  | 
CCN(CC)CCN(CC)CC.CCN(CC)CCN(CC)CC.[Cu+2].[Cu+2].[O-][Cl+3]([O-])([O-])[O-].[OH3+].[OH3+] | > 100 µM | 27.3 µM | 37.9 µM | 39.4 µM | 45.5 µM |  | > 100 µM | 30.8 µM | 13.9 µM | 23.6 µM | 22.1 µM |  | > 100 µM |  |  |  | 22.4 µM |  |  | 
C(=N\Nc1ncc(-c2cc3cc4c(cc3o2)OCO4)s1)/c1ccco1 | 7.59 µM |  |  | 11.4 µM | 12.3 µM | 10.9 µM | 11.6 µM | 2.7 µM |  | 1.86 µM | 3.42 µM | 2.25 µM | 2.9 µM | 10.2 µM | 12.4 µM | 5.49 µM |  | 2.86 µM | 1.79 µM | 2.02 µM
Fc1cccc(COc2ccc(Nc3ncnc4onc(-c5ccccc5)c34)cc2)c1 | > 100 µM | > 100 µM | 3.18 µM | 0.155 µM | > 100 µM | > 100 µM | > 100 µM | 0.0955 µM | 0.459 µM | < 0.0162 µM | 16.4 µM | 1.61 µM | 0.179 µM |  | > 100 µM | 0.806 µM | 0.24 µM |  | 0.262 µM | 0.172 µM
COc1ccc(NC(=O)Oc2ccc3c(C)cc(=O)oc3c2)c(OC)c1 (tested in a mixture with another compound) |  | > 100 µM | 86.1 µM |  | > 100 µM | > 100 µM | > 100 µM |  |  |  |  |  |  | > 100 µM | > 100 µM | > 100 µM |  |  |  | 
NC(=O)CC1OC(=O)Cc2cc3c(c(O)c21)C(=O)c1c(O)cccc1C3=O (stereo not given) | > 100 µM | > 100 µM | > 100 µM |  | > 100 µM | > 100 µM | > 100 µM |  |  |  |  |  |  | > 100 µM | > 100 µM | > 100 µM |  |  |  | 
CCOC(=O)C1(C(=O)OCC)C(C(C)(C)C)=C(C)c2ccccc21 | 40.9 µM | 69.5 µM |  | 61.8 µM | 26.2 µM | 56.2 µM | 39.5 µM |  |  |  |  |  |  |  |  |  |  |  |  | 
CC(C)(C)OC(=O)NCC(CNC(=O)OC(C)(C)C)C(N)=O | > 100 µM | > 100 µM | > 100 µM |  | > 100 µM | > 100 µM | > 100 µM |  |  |  |  |  |  | > 100 µM | > 100 µM | > 100 µM |  |  |  | 
O=C(C[n+]1ccccc1)N/N=C(/CCC(=O)N(Cc1ccccc1)Cc1ccccc1)CC(=O)c1ccccc1 | > 100 µM |  | > 100 µM | > 100 µM | > 100 µM | > 100 µM | > 100 µM |  |  |  |  |  |  |  |  |  |  |  |  | 
CC(=O)OC12C(C)=C(C)C(=O)N1c1ccccc1N2C(C)=O (stereo not given) | > 100 µM | > 100 µM |  | > 100 µM | > 100 µM | > 100 µM | > 100 µM |  |  |  |  |  |  |  |  |  |  |  |  | 
CSc1ccc(C2=NN(C(C)=O)C(c3ccc(-c4cc(Cl)c(Cl)cc4Cl)o3)C2)cc1 (stereo not given) | 30.4 µM | 38.8 µM |  | 43.2 µM | 29.7 µM | 30.6 µM |  | 12 µM | 16.7 µM | 18.7 µM | 16.2 µM | 14.9 µM |  | 36.4 µM | 30.7 µM | 29 µM |  | 15.5 µM | 11.2 µM | 15.5 µM
Cc1ccc(S(=O)(=O)ON2C(=O)c3cccc4cc([N+](=O)[O-])cc(c34)C2=O)cc1 |  | > 100 µM |  | > 100 µM | > 100 µM | > 100 µM | > 100 µM |  |  |  |  |  |  | > 100 µM | > 100 µM | > 100 µM |  |  |  | 
CC1=CCC2CC1C(C(=O)c1c[nH]c3ccccc13)=NC2(C)C (stereo not given) | > 100 µM | > 100 µM | > 100 µM |  | > 100 µM | > 100 µM | > 100 µM |  |  |  |  |  |  | > 100 µM | > 100 µM | > 100 µM |  |  |  | 
CN(C)c1ccc(/C=c2\sc3nnc(-c4ccco4)n3c2=O)cc1 | > 100 µM | > 100 µM | > 100 µM | > 100 µM | > 100 µM | > 100 µM | > 100 µM |  |  |  |  |  |  |  |  |  |  |  |  | 
O=C1c2ccccc2-c2c3c(cc4ccnc1c24)OCO3 | 15.6 µM | 84.4 µM and > 100 µM | 12.8 µM | 26.3 µM and 21.1 µM | 30.7 µM and > 100 µM | 11.7 µM and 35.7 µM | > 100 µM |  |  |  |  |  |  |  |  |  |  |  |  | 
COc1ccc(/C=C/c2cc(OC)c(OC(C)=O)c(OC)c2)cc1 |  | > 100 µM |  | 60.5 µM | 25.3 µM | > 100 µM | > 100 µM |  |  |  |  |  |  |  |  |  |  |  |  | 
Cc1ccc(NCC2(/N=C/c3ccccc3)OC(CO)C(O)C2O)cc1 (stereo not given) | 64.7 µM |  |  | > 100 µM | > 100 µM |  | > 100 µM |  |  |  |  |  |  |  |  |  |  |  |  | 
CSC(=O)C[C@@]12O[C@@H]([C@@H](C)C3CCC4[C@@H]5C(O)CC6=CC(=O)C=C[C@]6(C)C5CC[C@@]43C)C[C@](C)(O1)C(C)(C)O2 (stereo not given in full) | 38.2 µM | 42.6 µM | 31.5 µM |  | 32.1 µM |  | 33.3 µM |  |  |  |  |  |  |  |  |  |  |  |  | 
